Laboratory results published in patent US20110245213A1, “TREATMENT” (PROVEXIS NATURAL PRODUCTS LIMITED, priority 2008, published 2011).
Several values for one entry are separate records, joined by “and”; a condition that tells them apart may be missing. Equal entries are not always repeated. Values belong to the compound of their own block, whether it stands above or below them.

Tests used:
bovine insulin = biological target: T1, bovine insulin (Bos taurus, UniProt P01317); assay: Incubation of peptides with isothiocyanates, LC-MS/MS: insulin; assay type: binding; conditions: for conjugate of insulin peptide and ITC: PBS pH 7.4, 37° C., 0.5 to 24 hours
T1 construct: m/z 325.2 corresponds to Phe-SF, the N-terminal amino acid of insulin B chain; m/z 235.0 corresponds to Gly-SF, the N-terminal amino acid of insulin A chain; purchased Sigma-Aldrich
Procedure: (§1) Incubations of SF or IB with bovine insulin (P01308, Sigma-Aldrich), recombinant human epidermal growth factor (EGF, P01133, R&D Systems, http://www.rndsystems.com/) and recombinant human transforming growth factor beta 1 (TGFβ1, P01137, R&D Systems) were performed in sodium phosphate-buffered saline solution (pH 7.4) or human blood plasma at 37° C. for 0.5-24 h. Plasma was pre-treated by ultrafiltration to remove high molecular weight proteins (Microcon Ultracel YM-30 filter, MWCO 30,000). Samples were either analyzed directly by LC-MS/MS or by LC-MS/MS analysis of tryptic digests of gel electrophoresis bands.
(§2) The LC system used was a Shimadzu series 10AD VP (Shimadzu, http://www.shimadzu.com/). The column was an ACE 300 C18, 150×2.1 mm (5 μm particle size) used at 40° C. Mobile phase A was 0.1% formic acid in water, mobile phase B, 0.1% formic acid in acetonitrile and the flow rate was 0.25 ml/min. A linear gradient was used from 25% B to 35% B over 0 to 5 min, then a further gradient from 35% B to 99% B over 6 min followed by 99% B for 4 min. The column was re-equilibrated for a total of 3 min. The injection volume was between 5-20 μl. All MS experiments were conducted on a 4000 QTRAP hybrid triple-quadrupole linear ion trap mass spectrometer using Analyst version 1.4.1 software (Applied Biosystems, http://www.appliedbiosystems.com/) equipped with a TurboIon source used in positive ion electrospray mode. The probe capillary voltage was optimized at 4200 V, desolvation temperature set to 400° C., curtain gas, nebulizing and turbo spray gas were set to 40, 10 and 20, respectively (arbitrary values). […] The peak-width was set on Q1 and Q3 at 1.0 Th (measured at half height) for all MS and MS/MS experiments. Spectra were obtained over the range m/z 800-2000 with scan times of 1-2 sec. […]

[1] = tested on: Smad2 phosphorylation in PC3 cells; assay: Quantification of pSmad2 protein in PC3 cells; assay type: cell-based; conditions: for PSmad2 / PSmad2 Normalised to GAPDH: PC3 cells
Procedure: FIG. 14 represents (a) a photograph of a gel; and (b) the data quantified in a bar chart which corresponds to the data presented in Table 6 as discussed in Example 2 (Expt 2). The data illustrates how an ITC modulates Smad activity. The experiment concerned pre-incubation of TGFβ1 with and without sulforaphane (SF) for 30 minutes before treating PC3 cells for 1 h and then measuring Smad2 phosphorylation (i.e. a function of TGFβ1 activity).
TGFβ1 acts an anti-inflammatory cytokine. It induces phosphorylation of smad proteins that translocate to the nucleus and induce gene expression associated with anti-inflammatory activity. […] Therefore ITCs act as anti-inflammatory mediators.

[2] = biological target: T2, recombinant human transforming growth factor beta 1 (TGFβ1) (Homo sapiens, UniProt P01137); assay: Incubation of peptides with isothiocyanates, LC-MS/MS: TGFβ1; assay type: binding; conditions: for conjugate of TGFβ1 peptide and ITC: PBS pH 7.4, 37° C., 0.5 to 24 hours
T2 construct: TGFβ1 was robustly identified in bands of 25 kDa corresponding to the active dimer; purchased R&D Systems
Procedure: as §1
1 μg aliquots of the TGFβ1 protein, supplied with bovine serum albumin as carrier, were incubated with either DMSO or 1.2 μmoles of SF for 30 minutes at 37° C. and run onto denaturing 4-12% Bis-Tris NuPAGE gels (Invitrogen, http://www.invitrogen.com). Bands were excised and digested with trypsin (Promega, http://www.promega.com/) after reduction with dithiothreitol (DTT) and alklyation with iodoacetamide (Sigma-Aldrich, http://www.sigmaaldrich.com/). Extracted peptides were lyophilized and re-dissolved in 1% acetonitrile, 0.1% formic acid for analysis by mass spectrometry. LC-MS/MS analysis was performed using a LTQ mass spectrometer (Thermo Electron Corporation, http://www.thermo.com/) and a nanoflow-HPLC system (Surveyor, Thermo Electron). Peptides were applied to a precolumn (C18 pepmap100, LC Packings, http://www.lcpackings.com/) connected to a self-packed C18 8-cm analytical column (BioBasic resin ThermoElectron; Picotip 75 μm id, 15 μm tip, New Objective, http://www.newobjective.com/). Peptides were eluted by a gradient of 2 to 30% acetonitrile in 0.1% formic acid over 40 min at a flow rate of approximately 250 nL min^−1. Data-dependent acquisition of MS/MS consisted of selection of the five most abundant ions in each cycle: MS mass-to-charge ratio (m/z) 300 to 2000, minimum signal 1000, collision energy 25, 5 repeat hits, 300 sec exclusion.

[3] = tested on: TGFβ1/Smad mediated transcription; assay: Luciferase reporter gene assay in NIH 3T3 cells with CAGA12-luc plasmid; assay type: cell-based
Procedure: NIH 3T3 cells stably transfected with a CAGA12-luc plasmid, which responds to Smad activation (Dennler et al. (1998) Embo J 17: 3091-3100), were cultured in DMEM supplemented with 10% fetal calf serum (FCS), 1% penicillin, 1% streptomycin, 1% L-glutamine and 0.4 mg/ml geneticin. Cells were seeded into complete growth medium in a six-well tissue culture dish for 24 h, after which the medium was replaced with low serum medium (0.5% FCS) containing one of three treatments:
(1) TGFβ1 (to achieve a final concentration of 2 ng ml^−1) in PBS buffer,
(2) (TGFβ1+10 mM DTT in PBS buffer
(3) TGFβ1+2 μM SF in PBS buffer.
To simulate SF pharmacokinetics, all test samples were incubated at 37° C. for 30 minutes prior to dialysis, performed in PBS buffer for 4 hours using Slide-A-Lyzer Dialysis Cassettes MWCO 3.5K (PIERCE, http://www.piercenet.com/). Dialysis reduced SF concentration to 34 nM. As additional controls, cells were treated with PBS without TGFβ1 and PBS with SF (34 nM). The luciferase activity was determined 16 h following treatment using the Luciferase Reporter Gene assay (Roche Applied Science, http://www.roche.com/) in a Perkin Elmer Wallac Victor 2 1420 multilabel counter plate reader (http://las.perkinelmer.com/). Briefly, cells were washed twice with PBS and lysed in cell lysis buffer supplied with the assay. Chemiluminescence was immediately quantified following the addition of luciferase assay substrate. Luciferase values were normalized to protein concentration quantified using the BCA assay (Sigma-Aldrich, http://www.sigmaaldrich.com/). The experiment was repeated four times, with three replicates of each treatment per experiment. Statistical analysis was performed using 1-way ANOVA with the statistical software, R (http://www.R-project.org).

[4] = tested on: EGF receptor phosphorylation in BPH1 cells (hyperplastic prostate cells); conditions: BPH cells
[5] = biological target: T3, recombinant human epidermal growth factor (EGF) (Homo sapiens, UniProt P01133); assay: Incubation of peptides with isothiocyanates, LC-MS/MS: EGF; assay type: binding; conditions: for conjugate of EGF peptide and ITC: PBS pH 7.4, 37° C., 0.5 to 24 hours
T3 construct: addition of SF to the N-terminal asparagines residue (m/z 309) of EGF; purchased R&D Systems
Procedure: as §1, §2

[6] = following broccoli consumption, cited from earlier work
[7] = tested on: Smad2 phosphorylation in A549 cells; assay: Quantification of pSmad2 protein in A549 cells; assay type: cell-based; conditions: TGFβ1 alone
[8] = TGFβ1 + 2 μM SF, pre-incubated 30 minutes, cells treated 1 h
[9] = TGFβ1 + 10 μM SF, pre-incubated 30 minutes, cells treated 1 h

T2 sequence (P01137 279-390 limits assumed): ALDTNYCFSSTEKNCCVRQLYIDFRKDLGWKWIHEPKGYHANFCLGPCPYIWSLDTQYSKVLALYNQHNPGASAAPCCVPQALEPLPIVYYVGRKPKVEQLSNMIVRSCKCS
T1 sequence (P01317 25-54 limits assumed): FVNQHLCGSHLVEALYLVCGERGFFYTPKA
T1 sequence (P01317 85-105 limits assumed): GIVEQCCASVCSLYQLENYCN
T3 sequence (P01133 971-1023 limits assumed): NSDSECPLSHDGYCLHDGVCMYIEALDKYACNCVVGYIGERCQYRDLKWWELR

insulin-ITC conjugates (N-terminal Gly and Phe) by LC-MS/MS (bovine insulin; human plasma depleted of high MW proteins): appearance of two insulin-SF conjugates
modification of TGFβ1 (tryptic N-terminal peptide, LC-MS/MS) ([2]; 1 μg TGFβ1 with 1.2 μmoles of SF, 30 minutes at 37° C., SDS-PAGE, trypsin): N-terminal modification
EGF conjugates (N-terminal asparagine) by LC-MS/MS ([5]; human plasma): formation of EGF conjugates with SF
Compound: C[S+]([O-])CCCCN=C=S (stereo not shown) [SF, sulforaphane]
conjugate of insulin peptide and ITC (bovine insulin): formation of a covalently bound conjugate
expression of pSmad2 compared to TGFβ1 alone ([1]; PC3 cell line, co-exposure to TGFβ1 and SF): enhances expression of psamd2
PSmad2 [1, 8]: 8179 counts/mm^2 and 12578 counts/mm^2 and 11881 counts/mm^2
PSmad2 Normalised to GAPDH [1, 8]: 0.1772 and 0.2807 and 0.3091
PSmad2 [1, 9]: 13595 counts/mm^2 and 16870 counts/mm^2 and 15049 counts/mm^2
PSmad2 Normalised to GAPDH [1, 9]: 0.2602 and 0.2810 and 0.3104
conjugate of TGFβ1 peptide and ITC [2]: formation of a covalently bound conjugate
Smad-mediated transcription (luciferase) compared to TGFβ1 alone ([3]; TGFβ1 pre-incubated with 2 μM SF for 30 minutes followed by dialysis (SF 34 nM)): increase in Smad-mediated transcription
Smad-mediated transcription (luciferase) ([3]; residual SF (34 nM) alone, without TGFβ1): did not result in enhanced transcription
reduction in EGF receptor phosphorylation ([4]; 10 μmol/L sulforaphane, 10 mg/L EGF, 10 minute timecourse): approximately threefold
amount of phosphorylated EGF receptor compared to EGF alone ([4]; pre-incubation of EGF with ITC): reduces the amount of phosphorylated receptor
conjugate of EGF peptide and ITC [5]: formation of a covalently bound conjugate
SF in the plasma that occurs as free SF, as opposed to thiol conjugates [6]: 45%
peak concentration of SF and its thiol conjugates ([6]; plasma): less than 2 μM

Compound: TGFβ1: recombinant human transforming growth factor beta 1 (P01137, R&D Systems)
PSmad2 ([1]; TGFβ1 alone, 1 h): 6154 counts/mm^2 and 10910 counts/mm^2 and 7089 counts/mm^2
PSmad2 Normalised to GAPDH ([1]; TGFβ1 alone, 1 h): 0.1039 and 0.1722 and 0.1398
luciferase activity ([3]; TGFβ1 alone, 2 ng ml^−1): induced luciferase activity
PSmad2 [7]: 1570 counts/mm^2
PSmad2 Normalised to GAPDH [7]: 0.1320

Compound: C[S+]([O-])CCCN=C=S (stereo not shown) [IB, iberin]
conjugate of insulin peptide and ITC (bovine insulin): formation of a covalently bound conjugate
conjugate of TGFβ1 peptide and ITC [2]: formation of a covalently bound conjugate
conjugate of EGF peptide and ITC [5]: formation of a covalently bound conjugate
